# Measured values published in PMC6017025, “Pharmacokinetics of Schizandrin and Its Pharmaceutical Products Assessed Using a Validated LC–MS/MS Method” (Molecules : A Journal of Synthetic Chemistry and Natural …, 2018).
# Where two headings read alike, the source gives them in different places.
# Tests used:
# [1] = Pharmacokinetics of schizandrin in plasma of freely moving rats after i.v./oral schizandrin or oral S. chinensis product (LC-MS/MS, noncompartmental analysis); format: in vivo, rat
# Description: All experimental protocols involving animals were reviewed and approved by the Institutional Animal Care and Use Committee (IACUC number: 1060813) of National Yang-Ming University. Male Sprague-Dawley rats were obtained from the Laboratory Animal Center of the National Yang-Ming University, Taipei, Taiwan. The animals had free access to food (laboratory rodent diet 5P14, PMI Feeds, Richmond, IN) and water. Six Sprague-Dawley rats (220–240 g) were anesthetized with pentobarbital (50 mg/kg, i.p.) for cannulation. Surgical sites were shaved and disinfected with 70% ethanol solution, and a polyethylene tube (PE50) was implanted into the right jugular vein for collecting blood samples. The cannula were exteriorized and fixed in the dorsal region of the neck. Patency of the tube was maintained by flushing with heparinized saline (20 IU/mL). Rats were allowed to recover 24 h prior to drug administration. Schizandrin was dissolved in 10%DMSO and triply deionized water and administered by gastric gavage at a dose of 10 mg/kg. Schizandrin was dissolved in 10%ethanoland triply deionized water and administered by intravenous injection at a dose of 10 mg/kg. The S. chinensis pharmaceutical product was dissolved in triply deionized water and administered by gastric gavage at a dose of 3 g/kg and 10 g/kg (equivalent to 5.2 mg/kg and 17.3 mg/kg schizandrin).The gavage administration of S. chinensis volume was 3 mL. A 200 μL blood sample was withdrawn from the right jugular vein […] into a heparin-rinsed vial at 5, 15, 30, 45, 60, 90, 120, 150, 180, 240, 360 and 480 min. Blood samples were centrifuged at 6000× g for 10 min at 4 °C. The biological samples were stored at −20 °C before analysis.
# Each blood sample (50 μL) was mixed with 1 mL of ethyl acetate and vortexed for 5 min. The mixture was centrifuged at 16000× g for 10 min at 4 °C. The supernatant (1 mL) was transferred to an Eppendorf vial and dried at 40 °C in a centrifugation evaporator. The dried sample was reconstituted in 190 μL of methanol and IS solution (methyl yellow, 5 ng/mL in methanol) and filtered through a 0.22 μm filter. Finally, the filtrate (10 μL) was applied to the UPLC-MS/MS system for analysis.
# The LC–MS/MS analysis was performed using a Waters Acquity UPLC™ system (Waters Co., Manchester, UK) consisting of binary solvent manager, an automatic liquid chromatographic sampler and a Waters Xevo^TM tandem quadrupole mass spectrometry equipped with an electrospray ionization (ESI) source. The chromatography was performed on a Purospher® STAR RP-18 endcapped (100 mm × 2.1 mm, 2 μm, Merck KGaA, Darmstadt, Germany) analytical column and maintained at 40 °C in a column oven. The mobile phase consisted of 0.1% formic acid-methanol (15:85, v/v), and the flow rate was set at 0.2 mL/min. The injection volume was 10 μL. The positive ion mode with a multiple reaction monitor (MRM) was used for UPLC-MS/MS analysis. The following precursor-to-product ion transitions were used: m/z 433.22→415.19 for schizandrin and m/z 226.26→76.91 for methyl yellow (internal standard, IS).The instrument parameters were optimized as follows: capillary voltage, 3.2 kV; desolvation gas, nitrogen; desolvation temperature, 400 °C; desolvation gas flow rate, 800 L/h; cone voltage, 18 V; collision energy, 12 V and source temperature, 150 °C. MassLynx 4.1 software (Waters Corporation, Milford, MA, USA) was used for data processing.
# Pharmacokinetic calculations were performed on each individual set of data using the pharmacokinetic software WinNonlin Standard Edition, version 1.1 (Scientific Consulting Inc., Apex, NC, USA) by noncompartmental methods for intravenous and oral administration. The results were analyzed using Student’s t-test and the SigmaPlot program (version 13). All data are presented as the mean ± standard deviation (SD).
# [2] = Stability of schizandrin stock solution; format: physicochemical; conditions: up to 1 month at −20 °C
# Description: (§1) Three concentrations (low, medium, and high) were evaluated for stability. The schizandrin concentrations of 5, 50, and 500 ng/mL were used in the method validation.
# [3] = Stability of schizandrin in rat plasma (method validation); format: in vitro ADME; conditions: for Autosampler Stability / Short-Term Stability / Freeze-Thaw Stability / Long-Term Stability: rat plasma, in % (unit assumed); for Autosampler Stability: 10 °C for 24 h in autosampler; for Short-Term Stability: room temperature for 12 h; for Long-Term Stability: −20 °C for 1 month
# Description: as §1
# Stability was evaluated under four conditions: […]; […]; long-term stability kept at −80 °C for 1 month; and freeze-thaw stability: three samples were frozen and stored at −20 °C for 24 h and then thawed at room temperature. After repeating this cycle three times, the samples were analyzed by UHPLC-MS/MS.
# [4] = male, Sprague-Dawley, iv, schizandrin 10 mg/kg, rat plasma, n = 6
# [5] = male, Sprague-Dawley, po, schizandrin 10 mg/kg, rat plasma, n = 6
# [6] = schizandrin 10 mg/kg, p.o., rat plasma, n = 6
compound,measurement,setting,value
COc1cc2c(c(OC)c1OC)-c1c(cc(OC)c(OC)c1OC)C[C@](C)(O)[C@@H](C)C2 [schizandrin],concentration at 15 min,"[1]; male, Sprague-Dawley, intravenous, plasma sample from jugular vein of a rat at 15 min after 10 mg/kg, i.v. (Figure 2C)",31.8 ng/mL
same,AUC,[1]; [4],718 ng·h/mL
same,MRT,[1]; [4],0.58 h
same,clearance,[1]; [4],240 ± 30 mL/min/kg
same,half-life,[1]; [4],42.2 ± 14.8 min
same,clearance,"[1]; male, Sprague-Dawley, plasma, schizandrin intravenous group (10 mg/kg), rat",90 mL/min
same,AUC,[1]; [5],112 ng·h/mL
same,Cmax,[1]; [5],60 ± 30 ng/mL
same,MRT,[1]; [5],1.89 h
same,half-life,[1]; [5],74.7 ± 33.6 min
same,bioavailability,"[1]; male, Sprague-Dawley, rat, plasma, oral, 10 mg/kg, schizandrin 10 mg/kg, p.o. vs 10 mg/kg i.v., rat, read-out: F (bioavailability)",~15.6%
same,Tmax,"[1]; male, Sprague-Dawley, rat, plasma, po, 10 mg/kg, schizandrin 10 mg/kg, p.o., rat plasma, n = 6, read-out: Tmax",≤ 30 min
same,clearance (CL),"[1]; schizandrin 10 mg/kg orally, rat",0.34 ± 1.24 L/min/kg
same,CL,[1]; [6],0.34 ± 1.24 L/min/kg
same,Tmax,[1]; [6],22.50 ± 12.55 min
same,stability of stock solution,[2],stable
same,degradation in biological samples,"[3]; autosampler 24 h at 10 °C, 12 h at room temperature, 1 month at −80 °C, three freeze-thaw cycles",No significant degradation
same,Autosampler Stability,[3]; 5 ng/mL,−1.78 ± 2.25
same,Short-Term Stability,[3]; 5 ng/mL,−1.63 ± 8.36
same,Freeze-Thaw Stability,"[3]; 5 ng/mL, three freeze-thaw cycles",−8.04 ± 3.19
same,Long-Term Stability,[3]; 5 ng/mL,−0.56 ± 0.39
same,Autosampler Stability,[3]; 50 ng/mL,3.17 ± 3.19
same,Short-Term Stability,[3]; 50 ng/mL,5.70 ± 4.52
same,Freeze-Thaw Stability,"[3]; 50 ng/mL, three freeze-thaw cycles",−5.16 ± 3.83
same,Long-Term Stability,[3]; 50 ng/mL,−9.02 ± 0.40
same,Autosampler Stability,[3]; 500 ng/mL,0.43 ± 0.12
same,Short-Term Stability,[3]; 500 ng/mL,0.64 ± 0.08
same,Freeze-Thaw Stability,"[3]; 500 ng/mL, three freeze-thaw cycles",−0.63 ± 0.30
same,Long-Term Stability,[3]; 500 ng/mL,−6.75 ± 6.39
